Results: US12509447B2, “Small molecule compound” (Technoderma Medicines Pte Ltd, priority 2019, dated 2025)

Assays:
Type in all cases: biochemical
JAK2 = JAK2 (Homo sapiens, UniProt O60674); assay: Inhibition of JAK kinase activity, EZ Reader microfluidic phosphorylation of peptide substrate: JAK2; details: JAK2 kinase 1 nM; highest final concentration 10 μM, 1:3 serial dilution, 8 points, duplicates
Description: (§1) EZ Reader available from PerkinElmer can be used for detecting the phosphorylation of polypeptide substrates catalyzed by kinases. This device is based on microfluidic separation technology, and can directly detect fluorescence labeled substrates and products. The separation step is achieved in a microfluidic chip by controlling the pressure and electric field intensity. In a kinase experiment, the product conversion rate is generally controlled at 20-30%. This biological assay method is used for identifying the inhibitory effect of the compounds on JAK.
(§2) The compound powder was dissolved in DMSO, sealed and stored in a refrigerator at −20° C. The in-house compound Ref1 was used as a positive control for testing of JAK1, JAK2 and Tyk2, and Ref2 was used as a positive control for testing of JAK3.
(§3) • S2.1. 1M HEPES buffer: 0.5M HEPES free acid and 0.5M HEPES sodium salt are weighed, added into ultrapure water for dissolution, brought to a desired volume, filtered and stored in a refrigerator at 4° C. • S2.2. 40 mM ATP solution: dissolved in a 50 mM HEPES buffer solution, prepared into 40 mM, aliquoted, and cryopreserved in a refrigerator at −20° C. • S2.3. 0.5% Tween 20: 100% Tween 20 was diluted with ultrapure water, and stored in a refrigerator at 4° C. • S2.4. 35% bovine serum albumin: a 35% bovine serum albumin solution is prepared in ultrapure water, aliquoted, and stored in a refrigerator at −20° C. • S2.5. 1M dithiothreitol solution: dithiothreitol is formulated into a 1M solution with ultrapure water, aliquoted, and stored in a refrigerator at −20° C. • S2.6. 0.5 mM Jaktide Peptide substrate solution: it is dissolved in 50 mM HEPES to 0.5 mM, aliquoted, and stored in a refrigerator at −20° C. • S2.7. 0.5 mM IRStide Peptide substrate solution: it is dissolved in 50 mM HEPES to 0.5 mM, aliquoted, and stored in a refrigerator at −20° C. • S2.8. Assay Buffer: 20 mM HEPES buffer, pH 7.4, 10 mM magnesium chloride, 0.01% bovine serum albumin BSA, 0.0005% Tween-20, and a 1 mM dithiothreitol solution. • S2.9. Stop Buffer: 180 mM HEPES buffer, 20 mM ethylenediamine tetraacetic acid (EDTA), and 0.2% Coating Reagent 3. • S2.10. Separation Buffer: 100 mM HEPES buffer, 10 mM EDTA, 0.0005% Tween 20, 0.1% Coating Reagent 3, and 1% dimethyl sulfoxide. 3. Experimental Procedures • S3.1. Preparation of compound plate
(§4) The compound is dissolved in dimethyl sulfoxide to 10 mM, a certain volume is taken and diluted to 0.6 mM, 10 μl of the diluted 0.6 mM solution is taken and added into a 384 microplate or 1:3 serial dilution, with a total of 8 concentration points. • S3.2. Compound layout
(§5) • positive control (HPE1): Ref1, final concentration: 10 μM • positive control (HPE1): Ref2, final concentration: 10 μM • negative control (ZPE): DMSO, with a final concentration of 1.6% • Compound: the highest final concentration at 10 μM, 1:3 serial dilution, with 8 concentration points and in duplicates. 4. Experimental operation steps • S4.1. the experimental plate was added with 250 nl of the compound per well with ECHO, and centrifuged at 1,000 rpm for 1 minute; • S4.2. the precipitate was added with 5 μl of the experimental buffer, and shaken for several seconds to fully dissolve the compound; • S4.3. the solution was added with 5 μl of a 3× substrate solution, as well as 5 μl of a 3× kinase solution, and centrifuged at 800 rpm for 1 minute; • S4.4. The final concentrations of JAK1, JAK2, JAK3 and Tyk2 kinases in the reaction system are 20, 1, 1 and 1 nM, respectively. • S4.5. the reaction system is incubated at room temperature, wherein the incubation time of each kinase is different, and there are differences in incubation time of different batches of kinases. • S4.6. When the reaction reaches 20%-30%, the reaction system is added with 15 μl of the stop buffer to terminate the reaction, and centrifuged at 1,000 rpm for 2 minutes. • S4.7. The precipitate was placed onto a EZ Reader for plate reading. • S4.8. […]

Tyk2 = Tyk2 (Homo sapiens, UniProt P29597); assay: Inhibition of JAK kinase activity, EZ Reader microfluidic phosphorylation of peptide substrate: Tyk2; details: Tyk2 kinase 1 nM; highest final concentration 10 μM, 1:3 serial dilution, 8 points, duplicates
Tyk2, sequence (P29597 whole entry): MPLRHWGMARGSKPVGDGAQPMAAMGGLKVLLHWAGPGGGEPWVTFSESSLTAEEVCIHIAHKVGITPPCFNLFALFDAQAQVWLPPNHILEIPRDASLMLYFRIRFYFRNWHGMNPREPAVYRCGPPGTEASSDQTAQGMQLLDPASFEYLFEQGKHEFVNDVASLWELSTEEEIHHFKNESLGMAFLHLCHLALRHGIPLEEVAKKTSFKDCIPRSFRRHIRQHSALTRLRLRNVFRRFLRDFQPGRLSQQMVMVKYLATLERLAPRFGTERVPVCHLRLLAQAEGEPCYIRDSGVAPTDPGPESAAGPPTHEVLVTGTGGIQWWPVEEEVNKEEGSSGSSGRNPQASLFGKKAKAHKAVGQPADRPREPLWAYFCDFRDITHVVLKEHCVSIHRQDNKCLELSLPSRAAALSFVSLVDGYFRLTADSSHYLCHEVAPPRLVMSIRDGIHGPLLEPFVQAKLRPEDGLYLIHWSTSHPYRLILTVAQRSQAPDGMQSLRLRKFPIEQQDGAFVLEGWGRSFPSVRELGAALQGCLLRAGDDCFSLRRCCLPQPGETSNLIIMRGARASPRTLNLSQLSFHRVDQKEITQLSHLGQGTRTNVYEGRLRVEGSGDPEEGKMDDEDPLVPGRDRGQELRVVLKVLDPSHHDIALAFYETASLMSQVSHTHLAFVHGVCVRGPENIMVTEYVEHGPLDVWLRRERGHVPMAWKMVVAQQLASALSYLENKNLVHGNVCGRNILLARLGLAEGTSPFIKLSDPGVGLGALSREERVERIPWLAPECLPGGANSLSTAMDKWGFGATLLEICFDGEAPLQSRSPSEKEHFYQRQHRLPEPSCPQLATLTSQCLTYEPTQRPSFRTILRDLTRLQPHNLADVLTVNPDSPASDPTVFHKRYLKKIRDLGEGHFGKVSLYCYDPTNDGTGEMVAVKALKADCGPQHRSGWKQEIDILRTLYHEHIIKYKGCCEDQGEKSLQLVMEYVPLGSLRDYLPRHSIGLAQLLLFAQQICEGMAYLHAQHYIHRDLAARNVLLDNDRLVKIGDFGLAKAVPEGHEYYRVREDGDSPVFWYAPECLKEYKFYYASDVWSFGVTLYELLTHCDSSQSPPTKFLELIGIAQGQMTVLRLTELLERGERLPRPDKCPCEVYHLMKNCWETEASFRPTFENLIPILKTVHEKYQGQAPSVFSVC
How it was run: (§6)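 Microfluidic mobility-shift assay reading fluorescent peptide substrate and product; kinases at 20 nM (JAK1) or 1 nM (JAK2, JAK3, Tyk2) in pH 7.4 HEPES with 10 mM MgCl2, run at room temperature to 20-30% conversion, then stopped with EDTA. Compounds tested from 10 μM top, 1:3 over 8 points in duplicate; IC50 fitted from % conversion.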

JAK1 = JAK1 (Homo sapiens, UniProt P23458); assay: Inhibition of JAK kinase activity, EZ Reader microfluidic phosphorylation of peptide substrate: JAK1; details: JAK1 kinase 20 nM; highest final concentration 10 μM, 1:3 serial dilution, 8 points, duplicates
JAK1, sequence (P23458 whole entry): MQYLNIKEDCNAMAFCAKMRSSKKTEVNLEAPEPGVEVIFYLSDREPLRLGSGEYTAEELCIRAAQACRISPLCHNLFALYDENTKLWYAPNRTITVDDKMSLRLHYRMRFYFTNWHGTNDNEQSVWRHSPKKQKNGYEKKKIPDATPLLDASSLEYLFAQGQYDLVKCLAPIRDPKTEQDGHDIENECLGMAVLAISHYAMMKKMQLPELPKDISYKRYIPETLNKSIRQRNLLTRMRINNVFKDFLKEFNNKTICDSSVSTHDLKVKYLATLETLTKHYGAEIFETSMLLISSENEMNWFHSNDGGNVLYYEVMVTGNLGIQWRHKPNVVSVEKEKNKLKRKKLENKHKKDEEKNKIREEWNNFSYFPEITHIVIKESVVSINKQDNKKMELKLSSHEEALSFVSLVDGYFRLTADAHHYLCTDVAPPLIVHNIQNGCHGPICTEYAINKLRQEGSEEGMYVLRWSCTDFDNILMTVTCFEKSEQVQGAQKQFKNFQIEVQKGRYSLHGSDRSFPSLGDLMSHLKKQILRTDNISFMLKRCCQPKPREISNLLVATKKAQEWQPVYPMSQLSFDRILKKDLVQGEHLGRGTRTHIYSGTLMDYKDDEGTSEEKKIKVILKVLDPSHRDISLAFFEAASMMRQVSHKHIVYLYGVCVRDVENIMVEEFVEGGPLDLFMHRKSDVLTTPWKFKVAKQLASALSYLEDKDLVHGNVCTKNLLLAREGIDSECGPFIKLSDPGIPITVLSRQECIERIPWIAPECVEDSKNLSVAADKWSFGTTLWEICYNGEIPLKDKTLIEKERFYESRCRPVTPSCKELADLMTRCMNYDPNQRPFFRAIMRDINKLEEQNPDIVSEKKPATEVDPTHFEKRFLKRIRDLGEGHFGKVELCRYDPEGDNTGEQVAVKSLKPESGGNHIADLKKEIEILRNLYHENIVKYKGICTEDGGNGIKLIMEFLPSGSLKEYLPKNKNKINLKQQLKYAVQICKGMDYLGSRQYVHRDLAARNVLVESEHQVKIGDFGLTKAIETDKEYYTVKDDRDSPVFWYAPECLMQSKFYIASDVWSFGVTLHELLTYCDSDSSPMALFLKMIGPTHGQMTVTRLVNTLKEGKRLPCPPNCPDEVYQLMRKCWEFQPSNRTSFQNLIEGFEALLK
How it was run: as §6

JAK3 = target: T1, JAK3 (Homo sapiens, UniProt P52333); assay: Inhibition of JAK kinase activity, EZ Reader microfluidic phosphorylation of peptide substrate: JAK3; details: JAK3 kinase 1 nM; highest final concentration 10 μM, 1:3 serial dilution, 8 points, duplicates
T1 sequence (P52333 1-1124): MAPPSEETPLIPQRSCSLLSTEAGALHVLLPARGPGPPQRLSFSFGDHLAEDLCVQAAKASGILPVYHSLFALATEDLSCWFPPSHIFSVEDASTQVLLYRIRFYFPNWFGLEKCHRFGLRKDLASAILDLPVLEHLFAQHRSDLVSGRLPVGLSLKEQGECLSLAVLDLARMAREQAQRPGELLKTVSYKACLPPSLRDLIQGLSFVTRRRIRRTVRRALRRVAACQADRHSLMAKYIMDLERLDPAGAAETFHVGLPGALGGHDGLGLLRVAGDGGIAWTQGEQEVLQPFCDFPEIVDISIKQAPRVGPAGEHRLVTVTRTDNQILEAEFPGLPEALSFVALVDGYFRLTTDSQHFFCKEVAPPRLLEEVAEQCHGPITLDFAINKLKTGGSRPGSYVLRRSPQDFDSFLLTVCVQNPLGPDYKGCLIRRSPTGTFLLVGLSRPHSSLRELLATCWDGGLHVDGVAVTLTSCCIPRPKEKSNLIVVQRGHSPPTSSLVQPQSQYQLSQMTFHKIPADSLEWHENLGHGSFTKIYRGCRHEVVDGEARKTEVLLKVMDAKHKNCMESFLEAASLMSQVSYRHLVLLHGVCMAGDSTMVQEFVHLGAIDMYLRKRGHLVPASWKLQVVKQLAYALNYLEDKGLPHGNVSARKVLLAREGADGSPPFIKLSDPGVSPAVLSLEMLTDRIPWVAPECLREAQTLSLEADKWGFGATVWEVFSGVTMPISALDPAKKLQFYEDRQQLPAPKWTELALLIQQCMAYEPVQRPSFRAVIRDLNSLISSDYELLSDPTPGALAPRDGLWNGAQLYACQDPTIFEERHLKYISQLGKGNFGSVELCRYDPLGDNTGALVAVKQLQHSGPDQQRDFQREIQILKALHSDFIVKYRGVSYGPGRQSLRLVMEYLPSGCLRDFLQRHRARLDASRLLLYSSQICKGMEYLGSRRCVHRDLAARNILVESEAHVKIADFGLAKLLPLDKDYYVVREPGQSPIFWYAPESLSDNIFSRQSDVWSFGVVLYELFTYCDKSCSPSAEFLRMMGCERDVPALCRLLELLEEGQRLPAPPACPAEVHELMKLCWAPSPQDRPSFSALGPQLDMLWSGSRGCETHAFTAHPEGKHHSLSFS
Description: as §1, §2, §3, §4, §5

JAK2, sequence (O60674 whole entry): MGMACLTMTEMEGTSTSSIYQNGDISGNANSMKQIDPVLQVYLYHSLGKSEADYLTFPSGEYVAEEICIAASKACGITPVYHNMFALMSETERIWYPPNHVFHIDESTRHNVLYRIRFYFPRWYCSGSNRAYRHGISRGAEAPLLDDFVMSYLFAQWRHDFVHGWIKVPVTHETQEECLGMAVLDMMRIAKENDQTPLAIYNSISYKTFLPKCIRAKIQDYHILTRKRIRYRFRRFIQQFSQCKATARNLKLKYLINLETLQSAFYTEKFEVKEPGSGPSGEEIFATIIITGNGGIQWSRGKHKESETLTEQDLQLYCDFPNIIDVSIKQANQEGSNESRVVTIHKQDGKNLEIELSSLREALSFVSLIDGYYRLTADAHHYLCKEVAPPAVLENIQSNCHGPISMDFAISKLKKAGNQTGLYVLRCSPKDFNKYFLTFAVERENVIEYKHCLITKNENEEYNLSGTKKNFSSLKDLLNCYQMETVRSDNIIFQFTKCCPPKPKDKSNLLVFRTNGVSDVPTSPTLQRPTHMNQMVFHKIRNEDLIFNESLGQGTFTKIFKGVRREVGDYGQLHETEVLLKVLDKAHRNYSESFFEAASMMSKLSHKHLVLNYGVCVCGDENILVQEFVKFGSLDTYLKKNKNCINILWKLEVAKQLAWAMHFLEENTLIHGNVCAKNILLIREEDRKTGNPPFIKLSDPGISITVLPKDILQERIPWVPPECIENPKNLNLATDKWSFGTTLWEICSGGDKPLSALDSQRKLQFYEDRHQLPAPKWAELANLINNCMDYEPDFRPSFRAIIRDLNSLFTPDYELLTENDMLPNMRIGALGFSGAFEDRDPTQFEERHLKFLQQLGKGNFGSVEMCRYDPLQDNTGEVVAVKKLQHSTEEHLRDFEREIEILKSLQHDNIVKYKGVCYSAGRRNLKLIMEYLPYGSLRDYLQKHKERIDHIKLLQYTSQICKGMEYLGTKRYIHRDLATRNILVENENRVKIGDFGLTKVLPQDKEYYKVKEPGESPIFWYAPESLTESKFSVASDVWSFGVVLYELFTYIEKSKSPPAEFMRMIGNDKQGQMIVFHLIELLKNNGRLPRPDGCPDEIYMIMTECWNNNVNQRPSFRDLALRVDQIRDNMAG

| SMILES | IC50 (JAK2) [µM] | IC50 (Tyk2) [µM] | IC50 (JAK1) [µM] | IC50 (JAK3) [µM] |
| --- | --- | --- | --- | --- |
| Cn1cc(Nc2cc(-c3cnn(C4CN(C(=O)C5CC5)C4)c3)ccn2)cn1 [TDM-180637, cyclopropyl(3-(4-(2-((1-methyl-1H-pyrazol-4-yl)amino)pyridin-4-yl)-1H-pyrazol-1-yl)azetidin-1-yl)ketone] | ≥ 10 | ≥ 10 | ≥ 10 | ≥ 10 |
| CCCC(=O)N1CCC(n2cc(-c3ccnc(Nc4cnn(C)c4)n3)cn2)C1 (centres unmarked) [TDM-180650, 1-(3-(4-(2-((1-methyl-1H-pyrazol-4-yl)amino)pyrimidin-4-y1)-1H-pyrazol-1-yl)pyrrolidin-1-yl)butan-1-one] | ≥ 10 | ≥ 10 | ≥ 10 | ≥ 10 |
| CC(=O)N1CC(n2cc(-c3ccnc(Nc4cnn(C)c4)c3)cn2)C1 [TDM-180645] | ≥ 10 | ≥ 10 | ≥ 10 | ≥ 10 |
| CCC(=O)N1CCC(n2cc(-c3ccnc(Nc4cnn(C)c4)n3)cn2)CC1 [TDM-180676, 1-(4-(4-(2-((1-methyl-1H-pyrazol-4-yl)amino)pyrimidin-4-yl)-1H-pyrazol-1-yl)piperidin-1-yl)propan-1-one] | ≥ 10 | ≥ 10 | ≥ 10 | ≥ 10 |
| CCC(=O)N1CC(n2cc(-c3ccnc(Nc4cnn(C)c4)n3)cn2)C1 [TDM-180646, 1-(3-(4-(2-((1-methyl-1H-pyrazol-4-yl)amino)pyrimidin-4-yl)-1H-pyrazol-1-yl)azetidin-1-yl)propan-1-one] | ≥ 10 | ≥ 10 | ≥ 10 | ≥ 10 |
| Cn1cc(Nc2cc(-c3cnn(C4CN(C(=O)C5CC5(F)F)C4)c3)ccn2)cn1 (centres unmarked) [TDM-180638] | ≥ 10 | ≥ 10 | ≥ 10 | ≥ 10 |

The next lines start with the values.

| IC50 (JAK2) [µM] | IC50 (Tyk2) [µM] | IC50 (JAK1) [µM] | IC50 (JAK3) [µM] | SMILES |
| --- | --- | --- | --- | --- |
| 1 to 10 | 0.1 to 1 | 0.1 to 1 | ≥ 10 | Cn1cc(Nc2nccc(-c3cnn(C4(CC#N)CN(C(=O)C5CC5)C4)c3)n2)cn1 [TDM-180753, 2-(1-(cyclopropanecarbonyl)-3-(4-(2-((1-methyl-1H-pyrazol-4-yl)amino)pyrimidin-4-yl)-1H-pyrazol-1-yl)azetidinpyridin-3-yl)acetonitrile] |
| ≥ 10 | ≥ 10 | ≥ 10 | ≥ 10 | Cn1cc(Nc2nccc(-c3cnn(C4CCN(C(=O)C5CC5)C4)c3)n2)cn1 (centres unmarked) [TDM-180652, cyclopropyl(3-(4-(2-((1-methyl-1H-pyrazol-4-yl)amino)pyrimidin-4-yl)-1H-pyrazol-1-yl)pyrrolidin-1-yl)ketone] |
| 1 to 10 | ≥ 10 | ≥ 10 | ≥ 10 | Cn1cc(Nc2nccc(-c3cnn(C4CCN(C(=O)CC(F)(F)F)C4)c3)n2)cn1 (centres unmarked) [TDM-180651, 3,3,3-trifluoro-1-(3-(4-(2-((1-methyl-1H-pyrazol-4-yl)amino)pyrimidin-4-yl)-1H-pyrazol-1-yl)pyrrolidine-yl)propan-1-one] |
| < 0.1 | 0.1 to 1 | 0.1 to 1 | 1 to 10 | CCS(=O)(=O)N1CC(CC#N)(n2cc(-c3ccnc(Nc4cnn(C)c4)n3)cn2)C1 [TDM-180728, 2-(1-(ethylsulfonyl)-3-(4-(2-((1-methyl-1H-pyrazol-4-yl)amino)pyrimidin-4-yl)-1H-pyrazol-1-yl)azetidinpyridin-3-yl)acetonitrile] |
| 0.1 to 1 | 0.1 to 1 | 0.1 to 1 | 1 to 10 | Cn1cc(Nc2nccc(-c3ccn(C4(CC#N)CN(S(=O)(=O)C5CCOCC5)C4)c3)n2)cn1 [TDM-180855, 2-(3-(3-(2-((1-methyl-1H-pyrazol-4-yl)amino)pyrimidin-4-yl)-1H-pyrrol-1-yl)-1-((tetrahydro-2H-pyran-4-yl)sulfonyl)azetidin-3-yl)acetonitrile] |
| < 0.1 | < 0.1 | < 0.1 | 1 to 10 | Cn1cc(Nc2nccc(-c3ccn(C4(CC#N)CN(C(=O)C5CC5(F)F)C4)c3)n2)cn1 (centres unmarked) [TDM-180776, 2-(1-(2,2-difluorocyclo-1-carbonyl)-3-(3-(2-((1-methyl-1H-pyrazol-4-yl)amino)pyrimidin-4-yl)-1H-pyrrol-1-yl)azetidin-3-yl)acetonitrile] |
| < 0.1 | 0.1 to 1 | 0.1 to 1 | 1 to 10 | Cn1cc(Nc2nccc(-c3ccn(C4(CC#N)CN(S(=O)(=O)CCCF)C4)c3)n2)cn1 [TDM-180854, 2-(1-((3-fluoropropyl)sulfonyl)-3-(3-(2-((1-methyl-1H-pyrazol-4-yl)amino)pyrimidin-4-yl)-1H-pyrrol-1-yl)azetidin-3-yl)acetonitrile] |
| 1 to 10 | ≥ 10 | ≥ 10 | ≥ 10 | CCCS(=O)(=O)N1CC(n2cc(-c3ccnc(Nc4cnn(C)c4)n3)cn2)C1 [TDM-180666, N-(1-methyl-1H-pyrazol-4-yl)-4-(1-(1-(propylsulfonyl)azetidin-3-yl)-1H-pyrazol-4-yl)pyrimidin-2-amine] |
